From paper PMC7271024, “N1-Benzofused Modification of Fluoroquinolones Reduces Activity Against Gram-Negative Bacteria” (ACS Omega, 2020)
≈ marks a conversion by molar mass, not a printed value.

Legend:
K. pneumoniae M6 = test: MIC, microdilution broth method; type: cell-based, Klebsiella pneumoniae; settings: Klebsiella pneumoniae, ciprofloxacin-sensitive strain (S)
K. pneumoniae NCTC 13368 = test: MIC, microdilution broth method; type: cell-based, Klebsiella pneumoniae; settings: Klebsiella pneumoniae, ciprofloxacin-resistant strain (R)
Protocol: (§1) The antibacterial activities of the synthesized fluoroquinolones were evaluated against a panel of Gram-negative pathogens including K. pneumoniae (NCTC 13368, M6), Acinetobacter baumannii (AYE, ATCC 17978), Pseudomonas aeruginosa (PAO1, NCTC 13437), and Escherichia coli (NCTC 12923, LEC001). The ability of molecules to permeate the Gram-negative outer membrane was investigated by adding membrane permeabilizer polymyxin B nonapeptide (PMBN) at sub-inhibitory concentrations (Table 2). Phenylalanine–arginine β-naphthylamide (PAβN) was used to investigate efflux of compounds by resistance–nodulation–division (RND)-family efflux pumps (Table 3).
(§2) Minimal inhibitory concentrations (MICs) were determined using the microdilution broth method. Briefly, compounds were added to the first two columns of a 96-well plate and diluted two-fold down the plate in tryptic soy broth. Overnight cultures of bacteria were then adjusted to a concentration of 1 × 10^6 CFU/mL and added to each well for a final concentration of 5 × 10^5 CFU/mL.

A. baumannii ATCC 17978 = test: MIC, microdilution broth method; type: cell-based, Acinetobacter baumannii; settings: Acinetobacter baumannii, ciprofloxacin-sensitive strain (S)
A. baumannii AYE = test: MIC, microdilution broth method; type: cell-based, Acinetobacter baumannii; settings: Acinetobacter baumannii, ciprofloxacin-resistant strain (R)
Protocol: as §1, §2

P. aeruginosa PAO1 = test: MIC, microdilution broth method; type: cell-based, Pseudomonas aeruginosa; settings: for potentiation of MIC by PMBN: MIC –PMBN vs +PMBN; for MIC: Pseudomonas aeruginosa, ciprofloxacin-sensitive strain (S)
P. aeruginosa NCTC 13437 = test: MIC, microdilution broth method; type: cell-based, Pseudomonas aeruginosa; settings: for potentiation of MIC by PMBN: MIC –PMBN vs +PMBN; for MIC: Pseudomonas aeruginosa, ciprofloxacin-resistant strain (R)
Protocol: as §1, §2

E. coli NCTC 12923 = test: MIC, microdilution broth method; type: cell-based, Escherichia coli; settings: Escherichia coli, ciprofloxacin-sensitive strain (S)
E. coli LEC001 = test: MIC, microdilution broth method; type: cell-based, Escherichia coli; settings: Escherichia coli, ciprofloxacin-resistant strain (R)
Protocol: as §1, §2

[1] = tested on: panel of Gram-negative pathogens; test: MIC panel, statements across strains; type: cell-based, K. pneumoniae, A. baumannii, P. aeruginosa, E. coli; settings: versus ciprofloxacin
Protocol: as §1, §2

[2] = Solubility as observed in the MIC and enzyme experiments; type: physicochemical; settings: evidenced when undertaking the MIC experiments
Protocol: In vitro activity assays using purified S. aureus, E. coli and P. aeruginosa DNA gyrase, and S. aureus topoisomerase IV enzymes were performed in order to evaluate whether the gains in inhibitory activity predicted for the benzofused compounds were accurate. The benzothiophene-containing 6e was selected as a representative compound for the purposes of this experiment. […].
A general correlation between N1 substituent hydrophobicity and activity is observed; […].

Row | MIC (K. pneumoniae M6; M6, +PMBN (30 μg/mL)) [µg/mL] | MIC (K. pneumoniae M6; M6, –PMBN) [µg/mL] | MIC (K. pneumoniae NCTC 13368; NCTC13368, +PMBN (30 μg/mL)) [µg/mL] | MIC (K. pneumoniae NCTC 13368; NCTC13368, –PMBN) [µg/mL] | MIC (A. baumannii ATCC 17978; ATCC17978, +PMBN (30 μg/mL)) [µg/mL] | MIC (A. baumannii ATCC 17978; ATCC17978, –PMBN) [µg/mL] | MIC (A. baumannii AYE; +PMBN (30 μg/mL)) [µg/mL] | MIC (A. baumannii AYE; –PMBN) [µg/mL] | potentiation of MIC by PMBN (P. aeruginosa PAO1) | MIC (P. aeruginosa PAO1; PAO1, +PMBN (30 μg/mL)) [µg/mL] | MIC (P. aeruginosa PAO1; PAO1, –PMBN) [µg/mL] | potentiation of MIC by PMBN (P. aeruginosa NCTC 13437) | MIC (P. aeruginosa NCTC 13437; NCTC13437, +PMBN (30 μg/mL)) [µg/mL] | MIC (P. aeruginosa NCTC 13437; NCTC13437, –PMBN) [µg/mL] | MIC (E. coli NCTC 12923; NCTC12923, +PMBN (30 μg/mL)) [µg/mL] | MIC (E. coli NCTC 12923; NCTC12923, –PMBN) [µg/mL] | MIC (E. coli LEC001; LEC001, +PMBN (30 μg/mL)) [µg/mL] | MIC (E. coli LEC001; LEC001, –PMBN) [µg/mL] | solubility profile [2] | Compound | antibacterial activity [1]
1 | > 128 | > 128 | > 128 | > 128 | > 128 | > 128 | > 128 | > 128 | over 8 fold | 16 (≈ 38 µM) | > 128 | over 8 fold | 32 (≈ 75.9 µM) | > 128 | 32 (≈ 75.9 µM) | > 128 | > 32 | > 32 | poor solubility profiles | O=C(O)c1cn(Cc2cccc3ccoc23)c2cc(N3CCNCC3)c(F)cc2c1=O [Compound 6f] | almost complete loss of activity
2 | > 128 | > 128 | > 128 | > 128 | > 128 | > 128 | > 128 | > 128 | over 8 fold | 32 (≈ 73.1 µM) | > 128 | over 8 fold | 16 (≈ 36.6 µM) | > 128 | 128 (≈ 293 µM) | > 128 | > 32 | > 32 | poor solubility profiles | O=C(O)c1cn(Cc2cccc3ccsc23)c2cc(N3CCNCC3)c(F)cc2c1=O [Compound 6g] | almost complete loss of activity
